According to patent US6228866A, “Condensed piperidine compound” (Ono Pharmaceutical Co., Ltd., priority 1997, dated 2001):

Each compound was assayed against T1, i-NOS (Homo sapiens, UniProt P35228) (assay: i-NOS Inhibition Test). Settings: i-NOS from supernatant of A549 cells stimulated with LPS, TNF-α, IL-1β, INF-γ; 14C-L-arginine substrate; 37° C., 10 minutes; pH 7.8.
T1 construct: The supernatant was collected as a source of i-NOS; endogenous in cells; host or cells: A549 (human lung epithelial cell line), stimulated with LPS, TNF-alpha, IL-1beta and IFN-gamma; sonicated, 54,000 rpm supernatant
Format: biochemical
Procedure: The pharmacological activity of the compound of formula (I) according to the present invention on i-NOS was examined by the following test.
To human lung epithelial cell line of A549 were added 10 μg/ml of lipopolysaccharide (LPS), 10 ng/ml of tumor necrosis factor-α (TNF-α), 5 ng/ml of interleukin-1β (IL-1β), and 100 ng/ml of interferon-γ (INF-γ). Sixteen hours later the cells were ruptured by ultrasonication and centrifuged at 54,000 rpm. The supernatant was collected as a source of i-NOS.
i-NOS was made to act on ^14 C-labeled L-arginine as a substrate, and L-citrulline produced in the presence of the compound of the invention was determined to calculate the 50% inhibitory concentration of the test compound. More specifically, 10 μl of a 16.8 μM solution of L-[U-^14 C]arginine, 10 μl of the above-prepared i-NOS source, and 10 μl of varied amount of a test compound were added to 70 μl of a solution comprising 50 mM HEPES (N-2-hydroxyethylpiperazine-N'-2-ethanesulfonic acid) (pH 7.8), 1 mM DTT (dithiothreitol), 1 mM NADPH (reduced nicotinamide adenine dinucleotide phosphate), 0.1 mM BH4 (tetrahydrobiopterin), 10 μM FAD (flavin adenine dinucleotide), and 500 units/ml of CaM (calmodulin), and the solution was made to 100 μl. After incubation at 37° C. for 10 minutes, 0.225 ml of a reaction terminating buffer consisting of 100 mM HEPES (pH 5.1 to 5.5) and 10 mM EDTA (ethylenediaminetetraacetic acid) was added while cooling with ice to cease the enzymatic reaction. The reaction solution was passed through a column packed with 0.25 ml of Dowex 50WX-8 (Na^+ form) to remove unreacted L-arginine and the column was washed with 0.45 ml of the reaction terminating buffer to collect an effluent containing L-citrulline. The radioactivity of the effluent was measured with a liquid scintillation counter, which was taken as NOS activity, from which a 50% inhibition concentration of the test compound was obtained.
Compound C[C@H]1[C@H]2NC(=N)C[C@H](C)[C@@H]12 (relative stereo) [2 (g)] has an IC50 of 92 nM. With C[C@H]1CC(=N)N[C@H]2[C@@H]1C2(Cl)Cl (single isomer, unassigned) [compound 4] the IC50 was 21 nM. With C[C@@H]1CC(=N)N[C@@H]2C[C@H]12 (relative stereo) [3 (g)] the IC50 was 47 nM. C[C@H]1CC(=N)N[C@H]2[C@@H]1C2(Cl)Cl (relative stereo) [4 (a)] showed an IC50 of 57 nM. For N=C1CC2(CCN1)CC2 [compound 7], the IC50 was 200 nM. Work on C[C@@H]1CC(=N)N[C@H]2C[C@@H]12 [3 (f)] yielded an IC50 of 180 nM. C[C@@H]1CC(=N)N[C@@]2(C)C[C@@H]12 (relative stereo) [3 (i)] gave an IC50 of 130 nM. C[C@H]1CC(=N)N[C@H]2[C@@H]1C2(C)C (relative stereo) [compound 1] gave an IC50 of 220 nM. C[C@H]1CC(=N)N[C@@H]2[C@H](Cl)[C@@H]21 [compound 3] gave an IC50 of 12 nM. Work on C[C@H]1CC(=N)N[C@@H]2C[C@H]12 (relative stereo) [3 (a)] yielded an IC50 of 90 nM. C[C@H]1CC(=N)N[C@@H]2[C@H](Cl)[C@@H]21 (relative stereo) [3 (c)] was tested, and the IC50 was 20 nM.
